Laboratory results published in patent publication US8835425B2, “Use of selective GABA A α5 negative allosteric modulators for the treatment of central nervous system conditions” (Hoffmann-La Roche Inc., priority 2010, dated 2014).

Experiments:
[1] = system: Ts65Dn and control mice; test: Sensorimotor test battery; format: in vivo; details: 20 mg/kg p.o. chronic; for Auditory startle / Equilibrium aluminium bar / Equilibrium wooden bar / Grip strength / Prehensile reflex / Righting reflex / Traction capacity / Vision: mean score; for effect on sensorimotor abilities: Ts65Dn or control mice
Method: (§1) For mice studies, active pharmaceutical compounds of present invention were formulated in chocolate-milk (Puleva, Barcelona, Spain). Active pharmaceutical compounds of present invention or vehicle were administered p.o. at a dose of 20 mg/kg for six weeks. Their administration was prolonged during the 30 days of the behavioral assessment.
A battery of sensorimotor tests was performed following the procedure described by Rueda N et al. [Neurosci Leu (2008) 433(1):22-27]. In the visual placing reflex test, cerebellar and vestibular functions were evaluated. […] The response of forepaw extension was scored on a 0-4 scale [4: animal extends the forepaws when placed at the highest height; 3: forepaws extended before touching the surface with vibrissae; 2: forepaws extended after vibrissae touched the surface; 1: forepaws extended after the nose touched the surface; 0: no extension].
To evaluate auditory sensitivity, the startle response to a sudden auditory stimulus was measured. Mice were placed facing the wall of an unfamiliar cage and the auditory stimulus was generated by clapping together two stainless steel forceps (7 cm long). A score (0-3 points) was assigned based on the magnitude of the response: jumping more than 1 cm (3 points); jumping less than 1 cm (2 points); retracting of the ears (Preyer reflex, 1 point); or no response (0 points).
The vibrissa placing reflex was analyzed by noting the reflective reaction to touching the vibrissae with a cotton stick. In three consecutive trials, a score of 1 was assigned to animals that touched the stimulated vibrissae with an ipsilateral paw, and 0 if there was no response. Grip strength was assessed by quantifying the resistance to being separated from a lid of aluminum bars (2 mm), when dragged by the tail (0: no resistance, total loss of grip strength; 1: slight; 2: moderate; 3: active; 4: extremely active resistance, normal grip strength).
In order to evaluate equilibrium, four 20-s trials of balance were performed on an elevated (40 cm high), horizontal (50 cm long) rod. Trials 1 and 2 were performed on a flat wooden rod (9 mm wide); trials 3 and 4 were performed on a cylindrical aluminum rod (1 cm diameter). In each trial, the animals were placed in a marked central zone (10 cm) on the elevated rod. A score of 0 was given if the animal fell within 20 s, 1 if it stayed within the central zone for >20 s, 2 if it left the central zone, and 3 if it reached one of the ends of the bar.
Prehensile reflex (three 5-s trials) was measured as the ability of the animal to remain suspended by the forepaws by grasping an elevated horizontal wire (2 mm in diameter). The maximum possible score of 3 was achieved when the animal remained suspended by the forepaws in all three trials (one point per trial). Traction capacity was scored at the same time by assessing the number of hind limbs that the animal raised to reach the wire (0: none; 1: one limb; 2: two limbs).

[2] = biological target: human GABA A α5β3γ2 (Homo sapiens, UniProt P18507+P31644); test: Two-microelectrode voltage clamp, modulation of GABA EC10 response in Xenopus oocytes, α5β3γ2; format: cell-based; set-up: expressed in transfected cells; host or cells: Xenopus laevis oocytes; details: % change of submaximal (EC10) response to GABA at 30×Ki
Method: Table 2b. […] Effect at human GABA A α5 receptors: % change of a submaximal (EC10) response to GABA determined at 30×Ki value from the flumazenil binding assay.
Subtype-selective effects were determined on cloned receptors expressed in Xenopus oocytes. Human recombinant GABA A receptors were expressed in Xenopus laevis oocytes. Current responses were evoked in two-microelectrode voltage-clamp condition by applying an EC10 of GABA before and during the co-application of the test compound. Response amplitudes in the presence of the test compound are expressed as percentage of the amplitudes before drug addition.

[3] = system: hippocampal slices of Ts65Dn mice; test: Long term potentiation in hippocampal slices after chronic treatment; format: in vivo; details: 20 mg/kg p.o. for six weeks, vs control mice
Method: The effect of chronic administration of 8581 and R1 on LTP was evaluated in the Ts65Dn mouse model of Down syndrome. 8581, R1 (20 mg/kg p.o.) or vehicle was administered for six weeks. Mice were decapitated 1 hour after the last administration and the brains were rapidly removed. The hippocampi were dissected and 400-μm slices were cut with a tissue chopper. […] Field excitatory postsynaptic potentials (fEPSPs) were recorded from the CA1 stratum radiatum with a glass micropipette (1-4 MΩ) containing 2 M NaCl and evoked by stimulation of the Schaffer collaterals with insulated bipolar platin/iridium electrodes >500 μm away from the recording electrode. The stimulus strength was adjusted to evoke fEPSPs equal to 50% of the relative maximum amplitude without superimposed population spike. After stable baseline recordings (100 μs pulse-duration, 0.033 Hz), long term potentiation (LTP) was induced by TBS (10 trains of 5 pulses at 100 Hz and intervals of 200 ms). The duration of the stimulation pulses was doubled during the tetanus. After 20 min of baseline recording, LTP was induced and recorded for 80 min in each individual hippocampal slice. […] For the analysis, fEPSP slopes were expressed as a percentage of the baseline values recorded. Results from several slices were expressed as mean±SEM. […]

[4] = system: Ts65Dn and control mice; test: Motor coordination: rotarod; format: in vivo; details: mice of either genotype, 20 mg/kg p.o. chronic
Method: as §1
Motor coordination was evaluated using a rotarod device (Ugo Basile; Comerio, Italy), which consists of a 37-cm-long, 3-cm diameter plastic rod that rotates at different speeds. In a single session, 4 trials with a maximum duration of 60 s each were performed. In the first three tests, the rod was rotated at constant speeds of 5, 25 and 50 rpm, respectively. The last trial consisted of an acceleration cycle, in which the rod rotated progressively faster, and the animal had to adapt to the growing demands of the test. The length of time that each animal stayed on the rotarod was recorded.

Chain of human GABA A α5β3γ2 (P31644 32-462): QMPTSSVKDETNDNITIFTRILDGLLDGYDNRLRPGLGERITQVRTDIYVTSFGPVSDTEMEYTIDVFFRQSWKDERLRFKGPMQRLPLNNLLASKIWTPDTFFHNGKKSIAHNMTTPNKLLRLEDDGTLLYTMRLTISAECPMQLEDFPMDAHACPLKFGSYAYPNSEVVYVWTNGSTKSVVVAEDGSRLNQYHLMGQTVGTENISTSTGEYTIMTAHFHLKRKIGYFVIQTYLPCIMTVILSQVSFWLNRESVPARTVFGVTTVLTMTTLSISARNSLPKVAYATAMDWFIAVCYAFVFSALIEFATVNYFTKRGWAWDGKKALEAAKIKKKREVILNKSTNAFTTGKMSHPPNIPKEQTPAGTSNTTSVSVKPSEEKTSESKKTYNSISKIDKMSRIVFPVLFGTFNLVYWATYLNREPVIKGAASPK
Chain of human GABA A α5β3γ2 (P28472 26-473 partner): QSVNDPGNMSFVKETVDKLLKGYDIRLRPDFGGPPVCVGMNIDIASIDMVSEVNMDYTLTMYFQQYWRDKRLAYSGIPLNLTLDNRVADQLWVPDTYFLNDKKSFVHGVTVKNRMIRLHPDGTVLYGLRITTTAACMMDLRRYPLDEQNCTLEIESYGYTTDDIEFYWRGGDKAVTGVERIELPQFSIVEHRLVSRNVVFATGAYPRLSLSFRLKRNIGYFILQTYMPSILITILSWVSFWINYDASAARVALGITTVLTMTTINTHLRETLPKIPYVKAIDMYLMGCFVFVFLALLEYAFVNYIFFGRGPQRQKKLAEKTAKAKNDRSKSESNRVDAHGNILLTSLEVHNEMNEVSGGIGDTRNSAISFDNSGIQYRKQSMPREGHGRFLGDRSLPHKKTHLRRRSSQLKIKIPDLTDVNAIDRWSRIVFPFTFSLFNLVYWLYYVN
Chain of human GABA A α5β3γ2 (P18507 40-475): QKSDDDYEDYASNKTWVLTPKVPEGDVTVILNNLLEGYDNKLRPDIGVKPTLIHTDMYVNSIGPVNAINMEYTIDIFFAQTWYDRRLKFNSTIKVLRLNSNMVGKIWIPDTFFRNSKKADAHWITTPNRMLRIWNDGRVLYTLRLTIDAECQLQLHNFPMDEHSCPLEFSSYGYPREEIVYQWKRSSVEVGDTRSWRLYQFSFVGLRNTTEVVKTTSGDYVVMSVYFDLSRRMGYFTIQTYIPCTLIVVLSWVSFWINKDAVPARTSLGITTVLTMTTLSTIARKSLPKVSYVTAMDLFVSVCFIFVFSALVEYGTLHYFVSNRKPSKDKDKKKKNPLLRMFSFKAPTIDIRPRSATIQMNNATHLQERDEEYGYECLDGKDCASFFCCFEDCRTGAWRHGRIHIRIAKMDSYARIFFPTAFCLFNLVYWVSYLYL

SMILES	Latency arrival coat hanging ([1]; Ts65Dn mice)	Latency to fall aluminium bar ([1]; Ts65Dn mice)	Latency to fall wooden bar ([1]; Ts65Dn mice)	Number of crossings coat hanging ([1]; Ts65Dn mice)	Auditory startle ([1]; Ts65Dn mice)	Equilibrium aluminium bar ([1]; Ts65Dn mice)	Equilibrium wooden bar ([1]; Ts65Dn mice)	Grip strength ([1]; Ts65Dn mice)	Prehensile reflex ([1]; Ts65Dn mice)	Righting reflex ([1]; Ts65Dn mice)	Traction capacity ([1]; Ts65Dn mice)	Vision ([1]; Ts65Dn mice)	effect on sensorimotor abilities [1]	Latency arrival coat hanging ([1]; control mice)	Latency to fall aluminium bar ([1]; control mice)	Latency to fall wooden bar ([1]; control mice)	Number of crossings coat hanging ([1]; control mice)	Auditory startle ([1]; control mice)	Equilibrium aluminium bar ([1]; control mice)	Equilibrium wooden bar ([1]; control mice)	also measured
Cc1onc(-c2ccc(F)cc2)c1COc1ccc(C(=O)N2CCS(=O)(=O)CC2)cn1 [Compound R1, (1,1-Dioxo-1,6-thiomorpholin-4-yl)-{6-[3-(4-fluoro-phenyl)-5-methyl-isoxazol-4-ylmethoxy]-pyridin-3-yl}-methanone]	37.37	13.71	20.00	3.19	1.31	1.13	3.19	1.75	2.75	3.00	2.50	9.19	did not modify any of the sensorimotor abilities tested	30.93	11.16	20.00	2.73	1.00	0.80	2.53	Grip strength ([1]; control mice): 2.2; Prehensile reflex ([1]; control mice): 2.53; Righting reflex ([1]; control mice): 3.00; Traction capacity ([1]; control mice): 1.80; Vision ([1]; control mice): 8.40; Efficacy GABA A α5β3γ2 [2]: −39%; LTP induced in hippocampal slices of treated Ts65Dn animals [3]: not different from that induced in hippocampal slices of control mice; motor coordination in the rotarod [4]: not modified
FC(F)c1ncn2c1Cn1ncnc1-c1cc(Br)ccc1-2 [Compound 8581, 3-Bromo-10-difluoromethyl-9H-imidazo[1,5-a][1,2,4]triazolo[1,5-d][1,4]benzodiazepine]	35.44	12.11	17.77	3.33	1.33	1.00	3.55	2.00	2.67	3.00	1.67	7.67	did not modify any of the sensorimotor abilities tested	46.45	14.73	20.00	2.64	1.00	1.36	2.8	Grip strength ([1]; control mice): 1.55; Prehensile reflex ([1]; control mice): 2.45; Righting reflex ([1]; control mice): 3.00; Traction capacity ([1]; control mice): 1.82; Vision ([1]; control mice): 7.64; Efficacy GABA A α5β3γ2 [2]: −46%; LTP induced in hippocampal slices of treated Ts65Dn animals [3]: not different from that induced in hippocampal slices of control mice; motor coordination in the rotarod [4]: not modified
